The molecules below were run against T1, human V1a receptor (Homo sapiens, UniProt P37288) (assay: human V1a receptor binding (3H-Vasopressin SPA, membranes of transfected HEK293 cells)). Settings: displacement of 3H-Vasopressin; Ki calculated from IC50 using the Cheng-Prussoff equation.
T1 construct: expressed in transfected cells; host or cells: HEK293 cells, transiently transfected; membrane preparation
Description: The human V1a receptor was cloned by RT-PCR from total human liver RNA. The coding sequence was subcloned in an expression vector after sequencing to confirm the identity of the amplified sequence. […] Cell membranes were prepared from HEK293 cells transiently transfected with the expression vector and grown in 20 liter fermenters with the following protocol.
50 g of cells were resuspended in 30 ml freshly prepared ice cold Lysis buffer (50 mM HEPES, 1 mM EDTA, 10 mM MgCl2 adjusted to pH=7.4+complete cocktail of protease inhibitor (Roche Diagnostics)), homogenized with Polytron for 1 min, and sonicated on ice for 2×2 minutes at 80% intensity (Vibracell sonicator). The preparation was centrifuged 20 min at 500 g at 4° C., the pellet was discarded, and the supernatant centrifuged 1 hour at 43'000 g at 4° C. (19'000 rpm). The pellet was resuspended in 12.5 ml Lysis buffer+12.5 ml Sucrose 20% and homogenized using a Polytron for 1-2 min. The protein concentration was determined by the Bradford method and aliquots were stored at −80° C. until use. For binding studies, 60 mg Yttrium silicate SPA beads (Amersham) were mixed with an aliquot of membrane in binding buffer (50 mM Tris, 120 mM NaCl, 5 mM KCl, 2 mM CaCl2, 10 mM MgCl2) for 15 minutes with mixing. 50 ul of bead/membrane mixture was then added to each well of a 96 well plate, followed by 50 ul of 4 nM 3H-Vasopressin (American Radiolabeled Chemicals). For total binding measurement 100 ul of binding buffer were added to the respective wells, for non-specific binding 100 ul of 8.4 mM cold vasopressin were added, and for compound testing 100 ul of a serial dilution of each compound in 2% DMSO were added. The plate was incubated Ih at room temperature, centrifuged 1 min at 1000 g and counted on a Packard Top-Count. Non-specific binding counts were subtracted from each well and data was normalized to the maximum specific binding set at 100%. To calculate an IC 50, the curve was fitted using a non-linear regression model (XLfit) and the Ki was calculated using the Cheng-Prussoff equation.

T1 sequence (P37288 whole entry): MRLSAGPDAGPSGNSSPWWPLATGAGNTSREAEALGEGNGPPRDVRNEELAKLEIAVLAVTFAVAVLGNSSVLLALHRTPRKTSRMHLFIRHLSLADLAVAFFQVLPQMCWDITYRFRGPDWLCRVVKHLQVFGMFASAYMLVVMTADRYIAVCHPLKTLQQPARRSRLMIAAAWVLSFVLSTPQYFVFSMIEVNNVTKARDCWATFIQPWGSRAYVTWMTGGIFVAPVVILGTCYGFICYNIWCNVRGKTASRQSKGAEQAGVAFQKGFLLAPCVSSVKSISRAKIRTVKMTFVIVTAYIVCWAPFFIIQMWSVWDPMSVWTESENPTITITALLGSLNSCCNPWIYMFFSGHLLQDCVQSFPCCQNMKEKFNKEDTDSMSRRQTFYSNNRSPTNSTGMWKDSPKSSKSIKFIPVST

Structure (SMILES) | Ki [nM]
COc1ccc2[nH]c(C(=O)N3CCC(n4c(=O)[nH]c5ccccc54)CC3)c(NC(=O)c3ccccc3[N+](=O)[O-])c2c1 [Example 10, N-{5-Methoxy-2-[4-(2-oxo-2,3-dihydro-benzoimidazol-1-yl)-piperidine-1-carbonyl]-1H-indol-3-yl}-2-nitro-benzamide] | 20
N#CCc1cc(Cl)cc2cc(C(=O)N3CCC(n4c(=O)[nH]c5ccccc54)CC3)[nH]c12 [Example 46, {5-Chloro-2-[4-(2-oxo-2,3-dihydro-benzoimidazol-1-yl)-piperidine-1-carbonyl]-1H-indol-7-yl}-acetonitrile] | 35.5
O=C(c1cc2cccc(OCc3ccccc3)c2[nH]1)N1CCC(n2c(=O)[nH]c3ccccc32)CC1 [Example 37, 1-[1-(7-Benzyloxy-1H-indole-2-carbonyl)-piperidin-4-yl]-1,3-dihydro-benzoimidazol-2-one] | 21.9
O=C(c1cc2cc(Cl)ccc2[nH]1)N1CCC(N2C(=O)Cc3ccccc32)CC1 [Example 47, 1-[1-(5-Chloro-1H-indole-2-carbonyl)-piperidin-4-yl]-1,3-dihydro-indol-2-one] | 64.6
Cc1ccc2[nH]c(C(=O)N3CCC(n4c(=O)[nH]c5ccccc54)CC3)c(NC(=O)c3ccc(F)cc3)c2c1 [Example 11] | 39.8
CCOC(=O)Cc1c(C(=O)N2CCC(n3c(=O)[nH]c4ccccc43)CC2)[nH]c2ccccc12 [Example 14, {2-[4-(2-Oxo-2,3-dihydro-benzoimidazol-1-yl)-piperidine-1-carbonyl]-1H-indol-3-yl}-acetic acid ethyl ester] | 41.7
O=C(c1cc2cc(Cl)ccc2[nH]1)N1CCC(n2nnc3ccccc32)CC1 [Example 48, (4-Benzotriazol-1-yl-piperidin-1-yl)-(5-chloro-1H-indol-2-yl)-methanone] | 385
N#CCn1c(C(=O)N2CCC(n3c(=O)[nH]c4ccccc43)CC2)cc2cc(Cl)ccc21 [Example 45, {5-Chloro-2-[4-(2-oxo-2,3-dihydro-benzoimidazol-1-yl)-piperidine-1-carbonyl]-indol-1-yl}-acetonitrile] | 32
N#CCn1c(C(=O)N2CCC(n3c(=O)[nH]c4ccccc43)CC2)cc2cc(Br)ccc21 [Example 3, {5-Bromo-2-[4-(2-oxo-2,3-dihydro-benzoimidazol-1-yl)-piperidine-1-carbonyl]-indol-1-yl}-acetonitrile] | 12
